In US20250288518A1, “METHODS OF USING RADIPRODIL IN THE TREATMENT OF DISORDERS” (GRIN Therapeutics, Inc., priority 2023, published 2025):
Several values for one entry are separate records, joined by “and”; a condition that tells them apart may be missing. Identical values can stand only once. Like-named read-outs stand apart in the source and are kept apart here.

What was measured:
[1] = test system: pentylenetetrazole (PTZ)-induced generalized clonic-tonic seizures; assay: juvenile PTZ rat model; type: in vivo
Protocol: (§1) Radiprodil anticonvulsant efficacy was specifically tested in rats at different time points during postnatal development, using pentylenetetrazole (PTZ) as a convulsant, to induce generalized clonic-tonic seizures. The activity of radiprodil in this juvenile PTZ rat model was tested up to 30 mg/kg, showing efficacy at a dose of 1 mg/kg. The calculated free plasma fraction of an orally administered 1 mg/kg dose is expected to give around 60% occupancy of the NR2B receptor, based on an ex-vivo occupancy study in rodents and assuming a 1:1 brain to plasma ratio, see below for further details.

NR2B receptor = biological target: T1, NR2B receptor (Rattus norvegicus, UniProt P35439+Q00960); assay: NR2B occupancy at rat doses, based on ex-vivo occupancy study in rodents
T1 construct: occupancy of the NR2B receptor, based on an ex-vivo occupancy study in rodents; from tissue; host or cells: rodent brain (ex vivo occupancy; brain is implied by the 1:1 brain to plasma ratio)
T1 sequence (Q00960 27-1482, other chains not shown): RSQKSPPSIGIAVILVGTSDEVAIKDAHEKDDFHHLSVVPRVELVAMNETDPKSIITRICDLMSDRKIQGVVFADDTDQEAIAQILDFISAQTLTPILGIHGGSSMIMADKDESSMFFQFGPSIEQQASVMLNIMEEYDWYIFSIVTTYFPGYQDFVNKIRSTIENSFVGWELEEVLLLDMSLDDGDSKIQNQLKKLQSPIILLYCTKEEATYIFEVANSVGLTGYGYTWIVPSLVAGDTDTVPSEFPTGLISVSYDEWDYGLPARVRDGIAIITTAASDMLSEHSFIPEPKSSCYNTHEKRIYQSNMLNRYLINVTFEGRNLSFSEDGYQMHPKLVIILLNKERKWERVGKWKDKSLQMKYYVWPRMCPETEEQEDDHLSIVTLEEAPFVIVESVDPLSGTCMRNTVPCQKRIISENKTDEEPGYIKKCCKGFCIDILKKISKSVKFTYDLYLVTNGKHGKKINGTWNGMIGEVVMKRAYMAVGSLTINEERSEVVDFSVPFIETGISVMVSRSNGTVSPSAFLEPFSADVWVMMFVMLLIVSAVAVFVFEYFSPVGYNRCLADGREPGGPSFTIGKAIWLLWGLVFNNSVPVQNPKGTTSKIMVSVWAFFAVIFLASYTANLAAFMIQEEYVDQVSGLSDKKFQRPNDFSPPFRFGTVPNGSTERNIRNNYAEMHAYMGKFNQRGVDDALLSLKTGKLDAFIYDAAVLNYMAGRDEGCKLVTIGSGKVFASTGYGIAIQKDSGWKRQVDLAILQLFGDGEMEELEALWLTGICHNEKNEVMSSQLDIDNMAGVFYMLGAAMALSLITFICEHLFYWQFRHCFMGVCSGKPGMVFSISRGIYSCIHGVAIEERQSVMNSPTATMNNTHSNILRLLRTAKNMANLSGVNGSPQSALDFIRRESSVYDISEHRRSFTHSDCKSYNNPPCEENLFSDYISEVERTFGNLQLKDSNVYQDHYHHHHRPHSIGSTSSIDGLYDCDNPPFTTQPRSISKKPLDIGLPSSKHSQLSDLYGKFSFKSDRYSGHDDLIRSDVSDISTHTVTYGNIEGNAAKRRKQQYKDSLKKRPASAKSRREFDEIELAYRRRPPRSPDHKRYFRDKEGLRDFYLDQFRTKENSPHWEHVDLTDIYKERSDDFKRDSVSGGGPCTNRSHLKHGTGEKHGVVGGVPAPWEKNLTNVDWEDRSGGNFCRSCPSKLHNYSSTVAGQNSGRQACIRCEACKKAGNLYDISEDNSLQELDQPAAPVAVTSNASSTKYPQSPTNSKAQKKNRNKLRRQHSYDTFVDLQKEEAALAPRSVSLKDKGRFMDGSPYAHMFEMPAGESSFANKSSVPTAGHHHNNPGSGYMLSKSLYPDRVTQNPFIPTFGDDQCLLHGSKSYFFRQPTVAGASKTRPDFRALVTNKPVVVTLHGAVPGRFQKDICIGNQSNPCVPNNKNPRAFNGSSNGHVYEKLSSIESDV
Protocol: as §1

audiogenic seizures = assay: audiogenic seizure model (generalized seizures); type: in vivo; settings: adult mice
in vivo [2] = settings: rat
in vivo [3] = settings: dog
[4] = 9-month dog toxicology study; type: in vivo; settings: 1.5 mg/kg/day
[5] = test system: countable motor seizure (CMS); assay: phase 1B study, seizure cohort: efficacy; type: in vivo, human
Text: Investigational Product (IP): Radiprodil. This example describes an open-label, multicenter phase 1B study being conducted to evaluate the safety, tolerability, and pharmacokinetics (PK) of multiple individually titrated doses of radiprodil and to assess the treatment effect on seizures in participants with drug-resistant seizures caused by gain-of-function (GoF) variants in the GRIN1, GRIN2A, GRIN2B, or GRIN2D genes (GRIN2B GoF variants in the US only).
(§2) This is a global, open-label, multicenter, phase 1B study to evaluate the safety, tolerability, and PK of multiple individually titrated doses of radiprodil and to assess the treatment effect on seizures and behavioral symptoms in 2 cohorts of pediatric participants: 1 cohort of participants with drug resistant seizures (with or without behavioral symptoms) (Cohort 1) and 1 cohort of participants with behavioral symptoms (but no qualifying seizures) (Cohort 2) caused by GoF variants in the GRIN1, 2A, 2B, or 2D genes (GRIN2B GoF variants only in the US). These GoF variants are gene mutations that cause an increased sensitivity of NMDA receptors to glutamate or through decreased inhibition by magnesium, altered affinity to glycine, or other relevant changes considered to increase NMDA transmission. Drug-resistant seizures are defined as a failure to respond to at least 2 antiseizure medication (ASM) therapies taken at adequate doses for an appropriate duration with assured medication adherence as determined by the treating physician. Participants with seizures to be enrolled in the first cohort should have at least 1 observable motor seizure per week and ≥4 observable motor seizures in the prospective 4-week Observation Period.
A seizure cohort of patients from 6 months to 12 years of age with known GoF variants confirmed via method described in Myers, et al., Hum Mol Genetics. 2023, 32:2857-2871, was enrolled. The patients had drug-resistant seizures with or without behavioral symptoms. Patients also had ≥1 weekly countable motor seizure (CMS) with ≥4 generalized or focal seizures during the observation period. Motor seizures included drop seizures; generalized onset seizures included tonic-clonic, tonic, bilateral clonic, atonic, myoclonic-atonic, and myoclonic-tonic-clonic seizures; and focal seizures included seizures with bilateral hyperkinetic motor features and clonic seizures.
Primary endpoints included safety, tolerability, and radiprodil plasma concentrations. Key secondary endpoints (aka, change from baseline in observable daily CMS frequency using an electronic diary (eDiary)), included ≥50%, ≥90%, and 100% reductions from baseline in seizure frequency; proportion of seizure-free days; and Clinical Global Impressions of Change (CGI-C) and Caregiver Global Impressions of Change (CaGI-C), from baseline to the end of the maintenance period.

[6] = phase 1B study, seizure cohort: treatment emergent adverse events; type: in vivo
Text: The primary objectives of this study are to determine the safety and tolerability of multiple individually titrated doses of radiprodil as an add-on therapy to standard of care (SOC) in pediatric participants; establish a safe and well-tolerated dose; and to determine the pharmacokinetics (PK) and plasma exposure of radiprodil. Endpoints of these primary objectives include: adverse events (AEs), serious adverse events (SAEs), and adverse drug reactions (ADRs) (frequency, type, severity, and duration); changes in vital signs; physical examination findings; 12-lead electrocardiogram (ECG) findings; clinically significant changes in laboratory parameters; emergence of new seizure types; occurrence of suicidal ideation or behavior; determination of the maximum tolerated dose of radiprodil based on safety and tolerability data; and plasma concentrations of radiprodil.
Pyrexia, diarrhoea, and respiratory tract infection were the most common TEAEs. Three patients experienced SAEs, all unrelated to radiprodil treatment. One each of adenovirus infection, bronchiolitis, and viral pneumonia

behavioral symptoms = assay: phase 1B study, behavioral cohort: global impressions of change; type: in vivo, human; settings: clinicians and caregivers
Text: as §2
A behavioral cohort of patients from 6 months to 12 years of age with known GoF variants confirmed via method described in Myers, et al., Hum Mol Genetics. […]

[7] = phase 1B study, behavioral cohort: treatment emergent adverse events; type: in vivo, human
Text: Pyrexia, diarrhoea, and respiratory tract infection were the most common TEAEs. Three patients experienced SAEs, all unrelated to radiprodil treatment. One each of adenovirus infection, bronchiolitis, and viral pneumonia.

[8] = Phase 1 study of normal healthy human subjects, 45 mg Radiprodil (30% Formulation) fed and fasted; type: in vivo; settings: for AUC(0-inf) / AUC(0-t) / Cmax: human, in vivo, oral; for AUC(0-inf): read-out: AUCinf Geometric LSM; for AUC(0-t): read-out: AUClast Geometric LSM; for Cmax: read-out: Cmax Geometric LSM
[9] = cited from earlier work
[10] = 135 mg daily (45 mg tid) up to 14 weeks; cited from earlier work
[11] = all unrelated to radiprodil treatment
[12] = 2 participants, doses up to 0.2 mg/kg bid

O=C(Nc1ccc2[nH]c(=O)oc2c1)C(=O)N1CCC(Cc2ccc(F)cc2)CC1 [Radiprodil]
tonic phases of PTZ-induced convulsions ([1]; 10 mg/kg, postnatal day 12 and postnatal day 18 rats): completely blocked | dose showing efficacy in juvenile PTZ rat model ([1]; tested up to 30 mg/kg): 1 mg/kg | NR2B occupancy (NR2B receptor; 10 mg/kg): ~90% | occupancy of the NR2B receptor (NR2B receptor; orally administered 1 mg/kg, calculated free plasma fraction, 1:1 brain to plasma ratio assumed): around 60% | anticonvulsant efficacy in audiogenic seizure model (audiogenic seizures): anticonvulsant activity in the same range of doses/exposures | AUC (in vivo [2]): 9550 ng·h/mL | AUC0-24h at NOAEL (in vivo [2]): 9,555 ng×h/mL | AUC(0-t) (in vivo [2]): 9560 ng·h/mL | Cmax (in vivo [2]): 1400 ng/mL | Cmax at NOAEL (in vivo [2]): 1404 ng/mL | NOAEL at 4 weeks (in vivo [2]): 100 mg/kg/day | exposure (total Cmax and AUC) of 0.05 mg/kg bid lower than NOAEL exposure (in vivo [2]): more than 20 fold | NOAEL (in vivo [2]; 4 weeks): 100 mg/kg/day | NOAEL at 13 weeks (in vivo [3]): 1.5 mg/kg/day | AUC(0-t) (in vivo [3]; 1.5 mg/kg/day): 3750 ng·h/mL | Cmax (in vivo [3]; 1.5 mg/kg/day): 722 ng/mL | AUC(0-t) ([4]; dog, plasma, at 6-months, read-out: average AUC0-24h): 7060 ng·h/mL | seizures or convulsions ([4]; up to 6 months): no seizures or convulsions were observed | median reduction in CMS ([5]; 8-week maintenance period): ~86% | patients seizure-free during 80% of days ([5]; 8-week maintenance period): 6 of 7 | patients with reduction in CMS of 100% ([5]; 8-week maintenance period): 14.3% | patients with reduction in CMS of ≥50% ([5]; 8-week maintenance period): 71.4% | patients with reduction in CMS of ≥90% ([5]; 8-week maintenance period): 42.9% | patients with reductions from baseline in CMS frequency ([5]; seizure cohort): 6 of 7 | CGI-C and CaGI-C ([5]; seizure cohort, clinicians and caregivers): clinical improvement in most patients | Abnormal behavior, % ([6]; Seizure Cohort (n = 8)): (12.5) % | Agitation, % ([6]; Seizure Cohort (n = 8)): (12.5) % | Any TEAE, % ([6]; Seizure Cohort (n = 8)): (100) % | Cough, % ([6]; Seizure Cohort (n = 8)): (25.0) % | Diarrhoea, % ([6]; Seizure Cohort (n = 8)): (25.0) % | Dystonia, % ([6]; Seizure Cohort (n = 8)): (25.0) % | Fatigue, % ([6]; Seizure Cohort (n = 8)): (12.5) % | Gastroenteritis, % ([6]; Seizure Cohort (n = 8)): (25.0) % | Pyrexia, % ([6]; Seizure Cohort (n = 8)): (50.0) % | Respiratory tract infection, % ([6]; Seizure Cohort (n = 8)): (25.0) % | patients with SAEs [6, 11]: Three | tolerability ([6]; seizure cohort): generally well-tolerated | CGI-C and CaGI-C (behavioral symptoms): clinical improvement in most patients | Abnormal behavior, % ([7]; Behavioral Cohort (n = 7)): 28.6% | Agitation, % ([7]; Behavioral Cohort (n = 7)): 28.6% | Any TEAE, % ([7]; Behavioral Cohort (n = 7)): 85.7% | Cough, % ([7]; Behavioral Cohort (n = 7)): 14.3% | Diarrhea, % ([7]; Behavioral Cohort (n = 7)): 28.6% | Dystonia, % ([7]; Behavioral Cohort (n = 7)): 14.3% | Fatigue, % ([7]; Behavioral Cohort (n = 7)): 28.6% | Gastroenteritis, % ([7]; Behavioral Cohort (n = 7)): 14.3% | Pyrexia, % ([7]; Behavioral Cohort (n = 7)): 14.3% | Respiratory tract infection, % ([7]; Behavioral Cohort (n = 7)): 28.6% | patients with SAEs [7, 11]: Three | tolerability ([7]; behavioral cohort): generally well-tolerated | AUCinf Geometric LSM Ratio (Fed/Fasted) [8]: 148.4% | AUClast Geometric LSM Ratio (Fed/Fasted) [8]: 155.8% | Cmax Geometric LSM Ratio (Fed/Fasted) [8]: 259.6% | AUC(0-inf) ([8]; Fasted): 1890 ng·h/mL | AUC(0-t) ([8]; Fasted): 1780 ng·h/mL | Cmax ([8]; Fasted): 81.3 ng/mL | AUC(0-inf) ([8]; Fed): 2810 ng·h/mL | AUC(0-t) ([8]; Fed): 2770 ng·h/mL | Cmax ([8]; Fed): 211 ng/mL | AUC0-4 [9, 12]: up to 1036 ng×h/mL | AUC(0-t) [9, 12]: up to 1036 ng×h/mL | Cmax [9, 12]: up to 208 ng/mL | safety and tolerability ([9]; 3 infants, treatment for up to 34 days): safe and well tolerated | AUC [10]: 9000 ± 2387 ng·h/mL | AUC0-24h [10]: 6875 ng·h/mL | Cmax [10]: 487 ± 129 ng/mL and 482 ± 129 ng/mL
